# Data taken from paper PMC11882969 (Nature Communications, 2025).
# Several values for one entry are separate records, joined by “and”; a condition that tells them apart may be missing. Identical values can stand only once.
# Columns and labels:
# Format in all cases: cell-based
# [1] = target: panel of 320 non-olfactory GPCRs (Homo sapiens, UniProt P18825)
# [2] = target: panel of 320 non-olfactory GPCRs (Homo sapiens, UniProt P34998)
# [3] = target: panel of 320 non-olfactory GPCRs (Homo sapiens, UniProt O00398)
# [4] = target: panel of 320 non-olfactory GPCRs (Homo sapiens, UniProt Q96LB2)
# Chain of panel of 320 non-olfactory GPCRs (Homo sapiens, UniProt Q96LB2) (Q96LB2 whole entry): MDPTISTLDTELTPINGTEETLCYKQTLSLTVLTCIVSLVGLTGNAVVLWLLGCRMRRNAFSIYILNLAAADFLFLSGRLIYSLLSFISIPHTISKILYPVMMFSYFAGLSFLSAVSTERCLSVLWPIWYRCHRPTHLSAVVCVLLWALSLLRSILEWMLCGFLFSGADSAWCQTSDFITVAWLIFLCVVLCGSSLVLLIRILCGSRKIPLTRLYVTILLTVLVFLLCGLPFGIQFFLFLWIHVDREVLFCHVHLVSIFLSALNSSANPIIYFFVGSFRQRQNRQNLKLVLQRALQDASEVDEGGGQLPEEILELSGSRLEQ
# [5] = target: panel of 320 non-olfactory GPCRs (Homo sapiens, UniProt Q8TDS5)
# [6] = target: panel of 320 non-olfactory GPCRs (Homo sapiens, UniProt Q96CH1)
# [7] = target: panel of 320 non-olfactory GPCRs (Homo sapiens, UniProt O00421)
# Chain of panel of 320 non-olfactory GPCRs (Homo sapiens, UniProt O00421) (O00421 whole entry): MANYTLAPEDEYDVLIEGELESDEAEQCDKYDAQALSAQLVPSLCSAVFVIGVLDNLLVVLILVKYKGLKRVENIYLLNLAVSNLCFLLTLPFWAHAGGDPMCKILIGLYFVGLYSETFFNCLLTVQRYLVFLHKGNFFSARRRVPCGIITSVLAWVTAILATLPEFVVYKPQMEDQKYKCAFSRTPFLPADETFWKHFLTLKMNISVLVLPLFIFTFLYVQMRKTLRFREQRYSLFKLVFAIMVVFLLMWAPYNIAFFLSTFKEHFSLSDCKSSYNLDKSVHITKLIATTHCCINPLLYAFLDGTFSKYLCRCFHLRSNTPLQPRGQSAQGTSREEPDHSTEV
# [8] = target: panel of 320 non-olfactory GPCRs (Homo sapiens, UniProt P41587)
# [9] = target: panel of 320 non-olfactory GPCRs (Homo sapiens, UniProt P32238)
# Chain of panel of 320 non-olfactory GPCRs (Homo sapiens, UniProt P32238) (P32238 whole entry): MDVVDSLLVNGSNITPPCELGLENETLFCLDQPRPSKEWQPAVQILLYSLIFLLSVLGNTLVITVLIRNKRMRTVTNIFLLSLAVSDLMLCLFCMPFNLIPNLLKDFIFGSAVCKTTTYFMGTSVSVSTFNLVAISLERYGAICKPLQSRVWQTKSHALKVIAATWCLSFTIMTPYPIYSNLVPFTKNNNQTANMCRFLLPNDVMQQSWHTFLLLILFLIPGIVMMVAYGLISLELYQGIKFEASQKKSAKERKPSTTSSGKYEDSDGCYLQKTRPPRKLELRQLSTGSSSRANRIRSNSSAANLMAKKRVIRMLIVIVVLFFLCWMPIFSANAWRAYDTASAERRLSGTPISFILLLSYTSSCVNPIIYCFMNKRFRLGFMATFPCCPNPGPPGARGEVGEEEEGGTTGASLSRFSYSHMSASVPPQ
# [10] = target: panel of 320 non-olfactory GPCRs (Homo sapiens, UniProt P41180)
# [11] = target: panel of 320 non-olfactory GPCRs (Homo sapiens, UniProt P07550)
# [12] = target: panel of 320 non-olfactory GPCRs (Homo sapiens, UniProt Q8IZF4)
# Chain of panel of 320 non-olfactory GPCRs (Homo sapiens, UniProt Q8IZF4) (Q8IZF4 22-528): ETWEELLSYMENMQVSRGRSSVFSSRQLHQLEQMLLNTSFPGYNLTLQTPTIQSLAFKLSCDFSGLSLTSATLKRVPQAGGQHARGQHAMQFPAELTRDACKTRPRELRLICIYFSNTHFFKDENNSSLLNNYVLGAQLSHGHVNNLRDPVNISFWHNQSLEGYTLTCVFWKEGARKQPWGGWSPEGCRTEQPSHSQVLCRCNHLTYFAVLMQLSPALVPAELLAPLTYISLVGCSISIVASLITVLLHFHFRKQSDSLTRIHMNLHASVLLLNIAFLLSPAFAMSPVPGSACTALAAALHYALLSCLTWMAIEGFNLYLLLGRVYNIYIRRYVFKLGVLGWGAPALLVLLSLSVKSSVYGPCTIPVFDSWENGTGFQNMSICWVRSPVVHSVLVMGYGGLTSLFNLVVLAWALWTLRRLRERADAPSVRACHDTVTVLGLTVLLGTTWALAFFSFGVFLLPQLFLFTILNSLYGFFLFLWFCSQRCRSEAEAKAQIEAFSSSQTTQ
# [13] = target: panel of 320 non-olfactory GPCRs (Homo sapiens, UniProt Q8NGU9)
# Chain of panel of 320 non-olfactory GPCRs (Homo sapiens, UniProt Q8NGU9) (Q8NGU9 whole entry): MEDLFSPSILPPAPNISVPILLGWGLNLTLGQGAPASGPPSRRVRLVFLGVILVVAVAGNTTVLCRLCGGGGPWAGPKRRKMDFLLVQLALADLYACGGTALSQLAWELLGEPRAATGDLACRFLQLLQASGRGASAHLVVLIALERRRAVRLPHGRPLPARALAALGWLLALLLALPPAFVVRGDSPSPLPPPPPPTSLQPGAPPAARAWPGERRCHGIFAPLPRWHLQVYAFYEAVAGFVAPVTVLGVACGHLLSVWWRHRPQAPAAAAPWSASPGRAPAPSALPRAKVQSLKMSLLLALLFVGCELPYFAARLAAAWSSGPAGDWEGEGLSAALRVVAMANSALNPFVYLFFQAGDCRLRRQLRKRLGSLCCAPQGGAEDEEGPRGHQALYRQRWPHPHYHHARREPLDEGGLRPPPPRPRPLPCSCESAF
# [14] = target: panel of 320 non-olfactory GPCRs (Homo sapiens, UniProt Q9H1C0)
# [15] = target: panel of 320 non-olfactory GPCRs (Homo sapiens, UniProt P47900)
# [16] = target: panel of 320 non-olfactory GPCRs (Homo sapiens, UniProt Q14831)
# [17] = target: panel of 320 non-olfactory GPCRs (Homo sapiens, UniProt P47211)
# [18] = target: panel of 320 non-olfactory GPCRs (Homo sapiens, UniProt P32248)
# [19] = target: panel of 320 non-olfactory GPCRs (Homo sapiens, UniProt Q9BZJ7)
# [20] = target: panel of 320 non-olfactory GPCRs (Homo sapiens, UniProt P18089)
# [21] = target: panel of 320 non-olfactory GPCRs (Homo sapiens, UniProt P21731)
# [22] = target: panel of 320 non-olfactory GPCRs (Homo sapiens, UniProt Q9NZH0)
# Chain of panel of 320 non-olfactory GPCRs (Homo sapiens, UniProt Q9NZH0) (Q9NZH0 29-403): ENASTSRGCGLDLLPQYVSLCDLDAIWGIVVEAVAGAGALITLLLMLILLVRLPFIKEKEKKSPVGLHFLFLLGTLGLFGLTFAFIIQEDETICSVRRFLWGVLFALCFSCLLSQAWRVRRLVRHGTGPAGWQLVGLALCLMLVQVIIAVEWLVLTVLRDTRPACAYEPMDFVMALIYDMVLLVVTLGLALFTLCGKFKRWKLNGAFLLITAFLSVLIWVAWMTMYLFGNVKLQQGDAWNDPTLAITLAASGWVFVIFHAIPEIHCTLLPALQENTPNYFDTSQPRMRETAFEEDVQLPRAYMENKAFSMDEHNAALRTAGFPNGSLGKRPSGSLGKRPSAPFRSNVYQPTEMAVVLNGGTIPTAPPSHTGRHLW
# [23] = target: panel of 320 non-olfactory GPCRs (Homo sapiens, UniProt Q8TDU6)
# [24] = target: panel of 320 non-olfactory GPCRs (Homo sapiens, UniProt Q86SM8)
# Chain of panel of 320 non-olfactory GPCRs (Homo sapiens, UniProt Q86SM8) (Q86SM8 whole entry): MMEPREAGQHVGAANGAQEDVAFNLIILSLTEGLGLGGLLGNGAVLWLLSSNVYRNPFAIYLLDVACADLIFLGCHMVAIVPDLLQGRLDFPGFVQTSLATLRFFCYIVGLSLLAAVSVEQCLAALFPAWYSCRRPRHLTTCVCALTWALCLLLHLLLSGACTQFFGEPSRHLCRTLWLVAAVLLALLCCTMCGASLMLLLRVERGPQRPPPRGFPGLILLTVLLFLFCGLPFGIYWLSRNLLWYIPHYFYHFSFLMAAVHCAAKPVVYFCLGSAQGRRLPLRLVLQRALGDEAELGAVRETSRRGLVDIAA
# [25] = target: panel of 320 non-olfactory GPCRs (Homo sapiens, UniProt Q8TDV5)
# [26] = target: panel of 320 non-olfactory GPCRs (Homo sapiens, UniProt Q15722)
# Chain of panel of 320 non-olfactory GPCRs (Homo sapiens, UniProt Q15722) (Q15722 whole entry): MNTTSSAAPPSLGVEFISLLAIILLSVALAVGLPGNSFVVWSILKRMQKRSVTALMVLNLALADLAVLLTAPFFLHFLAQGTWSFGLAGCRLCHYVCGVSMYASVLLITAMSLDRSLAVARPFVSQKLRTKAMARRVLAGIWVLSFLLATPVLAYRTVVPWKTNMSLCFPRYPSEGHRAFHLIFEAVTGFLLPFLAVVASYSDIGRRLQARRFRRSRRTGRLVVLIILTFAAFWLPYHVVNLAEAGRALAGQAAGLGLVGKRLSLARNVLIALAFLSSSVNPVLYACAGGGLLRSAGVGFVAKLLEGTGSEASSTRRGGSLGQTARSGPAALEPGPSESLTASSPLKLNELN
# [27] = target: panel of 320 non-olfactory GPCRs (Homo sapiens, UniProt Q02643)
# Chain of panel of 320 non-olfactory GPCRs (Homo sapiens, UniProt Q02643) (Q02643 23-423): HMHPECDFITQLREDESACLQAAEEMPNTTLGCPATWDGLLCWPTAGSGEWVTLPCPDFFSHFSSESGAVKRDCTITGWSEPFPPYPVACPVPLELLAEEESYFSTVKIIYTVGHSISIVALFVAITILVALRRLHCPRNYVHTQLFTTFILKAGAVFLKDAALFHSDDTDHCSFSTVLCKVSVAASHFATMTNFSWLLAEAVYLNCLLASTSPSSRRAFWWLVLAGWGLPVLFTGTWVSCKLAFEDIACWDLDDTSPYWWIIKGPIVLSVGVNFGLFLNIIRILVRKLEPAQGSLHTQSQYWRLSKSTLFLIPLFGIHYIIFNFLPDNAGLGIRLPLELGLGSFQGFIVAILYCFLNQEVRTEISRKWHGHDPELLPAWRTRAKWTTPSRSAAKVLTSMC
# [28] = target: panel of 320 non-olfactory GPCRs (Homo sapiens, UniProt Q9NS67)
# [29] = target: panel of 320 non-olfactory GPCRs (Homo sapiens, UniProt P24530)
# Chain of panel of 320 non-olfactory GPCRs (Homo sapiens, UniProt P24530) (P24530 27-442): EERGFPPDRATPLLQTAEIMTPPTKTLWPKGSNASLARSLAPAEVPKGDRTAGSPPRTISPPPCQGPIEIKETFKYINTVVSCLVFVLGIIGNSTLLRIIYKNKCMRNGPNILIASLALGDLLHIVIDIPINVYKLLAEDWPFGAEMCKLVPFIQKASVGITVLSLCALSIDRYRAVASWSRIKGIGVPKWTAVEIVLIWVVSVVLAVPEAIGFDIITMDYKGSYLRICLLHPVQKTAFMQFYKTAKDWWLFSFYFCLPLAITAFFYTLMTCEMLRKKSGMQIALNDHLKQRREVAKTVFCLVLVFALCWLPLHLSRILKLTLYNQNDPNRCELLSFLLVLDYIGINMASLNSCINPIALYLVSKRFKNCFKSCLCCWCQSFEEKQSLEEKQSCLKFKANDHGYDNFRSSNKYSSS
# [30] = target: panel of 320 non-olfactory GPCRs (Homo sapiens, UniProt Q969V1)
# [31] = target: panel of 320 non-olfactory GPCRs (Homo sapiens, UniProt Q9BXC0)
# [32] = target: panel of 320 non-olfactory GPCRs (Homo sapiens, UniProt P28336)
# [33] = target: panel of 320 non-olfactory GPCRs (Homo sapiens, UniProt Q5NUL3)
# [34] = target: panel of 320 non-olfactory GPCRs (Homo sapiens, UniProt P51582)
# [35] = target: panel of 320 non-olfactory GPCRs (Homo sapiens, UniProt Q9HB89)
# [36] = target: panel of 320 non-olfactory GPCRs (Homo sapiens, UniProt P41145)
# Chain of panel of 320 non-olfactory GPCRs (Homo sapiens, UniProt P41145) (P41145 whole entry): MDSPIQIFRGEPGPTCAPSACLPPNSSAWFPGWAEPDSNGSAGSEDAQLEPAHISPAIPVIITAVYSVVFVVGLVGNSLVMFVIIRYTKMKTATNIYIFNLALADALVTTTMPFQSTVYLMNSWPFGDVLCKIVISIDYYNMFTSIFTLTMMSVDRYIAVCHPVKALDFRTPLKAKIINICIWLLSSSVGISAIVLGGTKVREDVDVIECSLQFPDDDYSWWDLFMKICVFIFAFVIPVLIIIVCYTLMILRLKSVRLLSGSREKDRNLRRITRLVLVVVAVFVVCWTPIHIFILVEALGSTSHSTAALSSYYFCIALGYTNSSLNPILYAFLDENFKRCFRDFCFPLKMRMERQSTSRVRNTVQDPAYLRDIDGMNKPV
# [37] = target: panel of 320 non-olfactory GPCRs (Homo sapiens, UniProt P08588)
# Chain of panel of 320 non-olfactory GPCRs (Homo sapiens, UniProt P08588) (P08588 whole entry): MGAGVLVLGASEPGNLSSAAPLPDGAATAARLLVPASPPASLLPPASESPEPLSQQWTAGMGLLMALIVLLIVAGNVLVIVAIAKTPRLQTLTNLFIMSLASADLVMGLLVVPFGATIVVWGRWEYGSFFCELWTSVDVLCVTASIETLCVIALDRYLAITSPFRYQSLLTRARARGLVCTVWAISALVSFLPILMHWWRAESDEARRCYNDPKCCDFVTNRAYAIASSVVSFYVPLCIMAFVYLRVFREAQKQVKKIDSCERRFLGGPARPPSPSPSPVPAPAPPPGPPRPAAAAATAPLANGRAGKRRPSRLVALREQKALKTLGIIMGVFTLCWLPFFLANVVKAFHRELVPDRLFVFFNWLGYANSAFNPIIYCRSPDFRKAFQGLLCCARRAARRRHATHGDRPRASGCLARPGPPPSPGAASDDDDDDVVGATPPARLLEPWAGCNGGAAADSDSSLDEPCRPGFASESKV
# Note: test concentration or dose not given here.
smiles,measurement,setting,value
COC(=O)[C@@](C)(NC(=O)c1cc(C)n(-c2cccc(C(F)(F)F)c2)n1)c1cccs1 [‘1350],Fold of Basal RLU,[1],0.7 and 1.2 and 0.6
same,Fold of Basal RLU,[2],0.7 and 0.9
same,Fold of Basal RLU,[3],1.1 and 1 and 1.2
same,Fold of Basal RLU,[4],0.9 and 0.7 and 0.8 and 1.1
same,Fold of Basal RLU,[5],0.4 and 0.8 and 0.5
same,Fold of Basal RLU,[6],0.6 and 0.7 and 0.8
same,Fold of Basal RLU,[7],1.8 and 1.2 and 1 and 0.9
same,Fold of Basal RLU,[8],0.9 and 1 and 0.7 and 1.3
same,Fold of Basal RLU,[9],1.4 and 0.9 and 1.1 and 1.7
same,Fold of Basal RLU,[10],0.4 and 0.7 and 0.8
same,Fold of Basal RLU,[11],0.7
Cc1cc(C(=O)NC(C)(c2ccco2)c2ccco2)nn1-c1cccc(C(F)(F)F)c1 [‘4936],Fold of Basal RLU,[12],0.9 and 1 and 0.8 and 0.6
same,Fold of Basal RLU,[13],0.7 and 0.6 and 0.5
same,Fold of Basal RLU,[14],0.7 and 0.4 and 0.6
same,Fold of Basal RLU,[15],1.1 fold and 0.9 fold and 0.7 fold and 1 fold
same,Fold of Basal RLU,[16],0.5 and 1 and 0.9 and 0.6
same,Fold of Basal RLU,[17],1.3 and 1 and 0.7 and 1.4
same,Fold of Basal RLU,[18],0.9 and 0.7 and 0.6
same,Fold of Basal RLU,[19],0.7 and 1.4 and 0.9
same,Fold of Basal RLU,[20],0.9 and 1.2 and 1.6 and 1
same,Fold of Basal RLU,[21],0.7 and 1.2 and 0.8
same,Fold of Basal RLU,[22],0.7 and 0.6 and 0.8
same,Fold of Basal RLU,[23],1.4 fold and 1.5 fold and 1.7 fold
same,Fold of Basal RLU,[24],0.9 fold and 1.5 fold and 1.3 fold
same,Fold of Basal RLU,[25],0.8 and 1.3
same,Fold of Basal RLU,[26],0.6 and 1 and 0.9 and 0.8
same,Fold of Basal RLU,[27],0.7 and 0.6 and 1
same,Fold of Basal RLU,[28],0.5 and 0.7 and 0.6
same,Fold of Basal RLU,[29],0.9 and 0.7 and 0.5
same,Fold of Basal RLU,[30],1.7 and 1.4 and 1 and 1.6
same,Fold of Basal RLU,[31],0.4 and 0.7 and 0.6
same,Fold of Basal RLU,[32],2.2 and 1.8 and 1.2 and 1.3
same,Fold of Basal RLU,[33],0.3 and 0.2
same,Fold of Basal RLU,[34],1.4 fold and 1.8 fold and 1.7 fold
same,Fold of Basal RLU,[35],0.9 and 1.5
same,Fold of Basal RLU,[36],1.5 fold and 0.8 fold and 1 fold
same,Fold of Basal RLU,[37],0.7 and 0.8 and 0.6
